Legend:
[1] = tested on: soybean; experiment: Test B pre/postemergence soybean; type: in vivo, Glycine max
Method in brief: (§1)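 Herbicidal effect was estimated by eye on a ten-point control scale after plants spent twelve to sixteen days in a greenhouse following soil or foliar treatment. Foliar sprays targeted plants at one to four leaves; all doses were formulated in a non-phytotoxic solvent with surfactant.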

[2] = tested on: corn; experiment: Test B pre/postemergence corn; type: in vivo, Zea mays
Method in brief: as §1

[3] = tested on: blackgrass; experiment: Test B pre/postemergence blackgrass; type: in vivo, Alopecurus myosuroides
Method in brief: as §1

[4] = tested on: bedstraw; experiment: Test B pre/postemergence bedstraw; type: in vivo, Galium aparine
Method in brief: as §1

[5] = tested on: rape; experiment: Test B pre/postemergence rape; type: in vivo, Brassica napus
Method in brief: as §1

[6] = tested on: giant foxtail; experiment: Test B pre/postemergence giant foxtail; type: in vivo, Setaria faberii
Method in brief: as §1

[7] = tested on: surinam grass; experiment: Test B pre/postemergence surinam grass; type: in vivo, Brachiaria decumbens
Method in brief: as §1

[8] = tested on: wheat; experiment: Test B pre/postemergence wheat; type: in vivo, Triticum aestivum
Method in brief: as §1

[9] = tested on: pigweed; experiment: Test B pre/postemergence pigweed; type: in vivo, Amaranthus retroflexus
Method in brief: as §1

[10] = tested on: purple nutsedge; experiment: Test B pre/postemergence purple nutsedge; type: in vivo, Cyperus rotundus
Method in brief: as §1

[11] = tested on: wild oat; experiment: Test B pre/postemergence wild oat; type: in vivo, Avena fatua
Method in brief: as §1

[12] = tested on: morningglory; experiment: Test B pre/postemergence morningglory; type: in vivo, Ipomoea hederacea
Method in brief: as §1

[13] = tested on: cocklebur; experiment: Test B pre/postemergence cocklebur; type: in vivo, Xanthium strumarium
Method in brief: as §1

[14] = tested on: sugar beet; experiment: Test B pre/postemergence sugar beet; type: in vivo, Beta vulgaris
Method in brief: as §1

[15] = tested on: velvetleaf; experiment: Test B pre/postemergence velvetleaf; type: in vivo, Abutilon theophrasti
Method in brief: as §1

[16] = tested on: crabgrass; experiment: Test B pre/postemergence crabgrass; type: in vivo, Digitaria sanguinalis
Method in brief: as §1

[17] = Postemergence, Rate 62 g/ha, scale of 0 to 10, 0 is no effect, 10 is complete control
[18] = Postemergence, Rate 125 g/ha, scale 0 to 10, 0 is no effect, 10 is complete control
[19] = Postemergence, Rate 500 g/ha, scale 0 to 10, 0 is no effect, 10 is complete control
[20] = Preemergence, Rate 62 g/ha, scale 0 to 10 (0 no effect, 10 complete control)
[21] = Preemergence, Rate 125 g/ha, scale 0 to 10, 0 is no effect, 10 is complete control
[22] = Preemergence, Rate 500 g/ha, scale of 0 to 10 where 0 is no effect and 10 is complete control
[23] = Rate 250 g/ha, Postemergence, scale of 0 to 10 where 0 is no effect and 10 is complete control

CCOC(=O)C=C(Cn1c(=O)on(C(=O)N(c2ccc(Cl)cc2)C(C)C)c1=O)OCC [Compound 549]
Soybean plant response rating [1, 17]: 2
Soybean plant response rating [1, 18]: 2
Plant response rating, Soybean [1, 19]: 3
Soybean plant response rating [1, 20]: 0
Soybean plant response rating [1, 21]: 0
Soybean plant response rating (0 to 10 scale) ([1]; Preemergence, Rate 250 g/ha): 0
Soybean plant response rating [1, 22]: 0
Plant response rating, Soybean [1, 23]: 2
Corn plant response rating [2, 17]: 0
Corn plant response rating [2, 18]: 0
Plant response rating, Corn [2, 19]: 0
Corn plant response rating [2, 20]: 0
Corn plant response rating [2, 21]: 0
Corn plant response rating (0 to 10 scale) ([2]; Preemergence, Rate 250 g/ha): 0
Corn plant response rating [2, 22]: 0
Plant response rating, Corn [2, 23]: 0
Blackgrass plant response rating [3, 17]: 0
Blackgrass plant response rating [3, 18]: 0
Plant response rating, Blackgrass [3, 19]: 3
Blackgrass plant response rating [3, 20]: 0
Blackgrass plant response rating [3, 21]: 4
Blackgrass plant response rating (0 to 10 scale) ([3]; Preemergence, Rate 250 g/ha): 6
Plant response rating, Blackgrass [3, 23]: 2
Bedstraw plant response rating [4, 17]: 0
Bedstraw plant response rating [4, 18]: 0
Plant response rating, Bedstraw [4, 19]: 8
Bedstraw plant response rating [4, 20]: 0
Bedstraw plant response rating [4, 21]: 0
Bedstraw plant response rating (0 to 10 scale) ([4]; Preemergence, Rate 250 g/ha): 5
Bedstraw plant response rating [4, 22]: 5
Plant response rating, Bedstraw [4, 23]: 0
Rape plant response rating [5, 17]: 0
Rape plant response rating [5, 18]: 0
Plant response rating, Rape [5, 19]: 7
Rape plant response rating [5, 20]: 0
Rape plant response rating [5, 21]: 0
Rape plant response rating (0 to 10 scale) ([5]; Preemergence, Rate 250 g/ha): 0
Rape plant response rating [5, 22]: 0
Plant response rating, Rape [5, 23]: 5
Giant foxtail plant response rating [6, 17]: 2
Giant foxtail plant response rating [6, 18]: 2
Plant response rating, Giant foxtail [6, 19]: 7
Giant foxtail plant response rating [6, 20]: 9
Giant foxtail plant response rating [6, 21]: 10
Giant foxtail plant response rating (0 to 10 scale) ([6]; Preemergence, Rate 250 g/ha): 10
Giant foxtail plant response rating [6, 22]: 10
Plant response rating, Giant foxtail [6, 23]: 2
B. signalgrass plant response rating [7, 17]: 0
B. signalgrass plant response rating [7, 18]: 0
Plant response rating, B. signalgrass [7, 19]: 3
B. signalgrass plant response rating [7, 20]: 0
B. signalgrass plant response rating [7, 21]: 0
B. signalgrass plant response rating (0 to 10 scale, 0 is no effect, 10 is complete control) ([7]; Preemergence, Rate 250 g/ha): 0
B. signalgrass plant response rating [7, 22]: 0
Plant response rating, B. signalgrass [7, 23]: 0
Wheat plant response rating [8, 17]: 0
Wheat plant response rating [8, 18]: 0
Plant response rating, Wheat [8, 19]: 2
Wheat plant response rating [8, 20]: 0
Wheat plant response rating [8, 21]: 0
Wheat plant response rating [8, 22]: 0
Plant response rating, Wheat [8, 23]: 0
Redroot pigweed plant response rating [9, 17]: 0
Redroot pigweed plant response rating [9, 18]: 0
Plant response rating, Redroot pigweed [9, 19]: 8
Redroot pigweed plant response rating [9, 20]: 6
Redroot pigweed plant response rating [9, 21]: 6
Plant response rating, Redroot pigweed [9, 23]: 0
Nutsedge plant response rating [10, 18]: 0
Plant response rating, Nutsedge [10, 19]: 0
Nutsedge plant response rating [10, 21]: 0
Nutsedge plant response rating (0 to 10 scale) ([10]; Preemergence, Rate 250 g/ha): 0
Nutsedge plant response rating [10, 22]: 0
Wild oats plant response rating [11, 17]: 0
Wild oats plant response rating [11, 18]: 0
Plant response rating, Wild oats [11, 19]: 2
Wild oats plant response rating [11, 20]: 0
Wild oats plant response rating [11, 21]: 0
Wild oats plant response rating (0 to 10 scale) ([11]; Preemergence, Rate 250 g/ha): 0
Wild oats plant response rating [11, 22]: 3
Plant response rating, Wild oats [11, 23]: 0
Morningglory plant response rating [12, 17]: 4
Morningglory plant response rating [12, 18]: 4
Plant response rating, Morningglory [12, 19]: 4
Morningglory plant response rating [12, 20]: 0
Morningglory plant response rating [12, 21]: 0
Morningglory plant response rating (0 to 10 scale) ([12]; Preemergence, Rate 250 g/ha): 0
Morningglory plant response rating [12, 22]: 0
Plant response rating, Morningglory [12, 23]: 4
Cocklebur plant response rating [13, 17]: 0
Cocklebur plant response rating [13, 18]: 0
Plant response rating, Cocklebur [13, 19]: 4
Cocklebur plant response rating [13, 20]: 0
Cocklebur plant response rating [13, 21]: 0
Cocklebur plant response rating (0 to 10 scale) ([13]; Preemergence, Rate 250 g/ha): 0
Cocklebur plant response rating [13, 22]: 0
Plant response rating, Cocklebur [13, 23]: 0
Sugarbeets plant response rating [14, 17]: 0
Sugarbeets plant response rating [14, 18]: 0
Plant response rating, Sugarbeets [14, 19]: 4
Sugarbeets plant response rating [14, 20]: 0
Sugarbeets plant response rating [14, 21]: 0
Sugarbeets plant response rating (0 to 10 scale) ([14]; Preemergence, Rate 250 g/ha): 0
Sugarbeets plant response rating [14, 22]: 3
Plant response rating, Sugarbeets [14, 23]: 0
Velvetleaf plant response rating [15, 18]: 0
Plant response rating, Velvetleaf [15, 19]: 4
Velvetleaf plant response rating [15, 20]: 0
Velvetleaf plant response rating [15, 21]: 0
Velvetleaf plant response rating (0 to 10 scale) ([15]; Preemergence, Rate 250 g/ha): 0
Velvetleaf plant response rating [15, 22]: 0
Plant response rating, Velvetleaf [15, 23]: 4
Crabgrass plant response rating [16, 17]: 2
Crabgrass plant response rating [16, 18]: 3
Plant response rating, Crabgrass [16, 19]: 9
Crabgrass plant response rating [16, 20]: 3
Crabgrass plant response rating [16, 21]: 7
Crabgrass plant response rating (0 to 10 scale) ([16]; Preemergence, Rate 250 g/ha): 10
Crabgrass plant response rating [16, 22]: 10
Plant response rating, Crabgrass [16, 23]: 6
